± gives the expanded uncertainty stated by the source.
Assay: xn = mol fraction of the nth substance listed
Conditions: 100 kPa, Liquid; for viscosity: Concentric cylinders viscometry; for mass density: Vibrating tube method

CCOC(=O)CCC(=O)OCC [diethyl butanedioate] + CCCC(=O)OCC
Conditions	mass density [kg/m3]	viscosity [mPa·s]
288.15 K, x2 = 0.0999	1032.25 ± 0.83	2.784 ± 0.033
288.15 K, x2 = 0.2	1018.97 ± 0.83	2.407 ± 0.029
288.15 K, x2 = 0.3003	1004.96 ± 0.83	2.07 ± 0.025
288.15 K, x2 = 0.3999	990.34 ± 0.83	1.782 ± 0.022
288.15 K, x2 = 0.5	974.86 ± 0.83	1.537 ± 0.019
288.15 K, x2 = 0.5997	958.7 ± 0.83	1.334 ± 0.017
288.15 K, x2 = 0.7	941.56 ± 0.83	1.162 ± 0.015
288.15 K, x2 = 0.7999	923.5 ± 0.83	1.015 ± 0.013
288.15 K, x2 = 0.8999	904.39 ± 0.83	0.8744 ± 0.011
293.15 K, x2 = 0.0999	1027.04 ± 0.83	2.464 ± 0.029
293.15 K, x2 = 0.2	1013.76 ± 0.83	2.146 ± 0.026
293.15 K, x2 = 0.3003	999.74 ± 0.83	1.859 ± 0.023
293.15 K, x2 = 0.3999	985.12 ± 0.83	1.613 ± 0.02
293.15 K, x2 = 0.5	969.64 ± 0.83	1.402 ± 0.017
293.15 K, x2 = 0.5997	953.46 ± 0.83	1.225 ± 0.015
293.15 K, x2 = 0.7	936.32 ± 0.83	1.077 ± 0.014
293.15 K, x2 = 0.7999	918.25 ± 0.83	0.9435 ± 0.012
293.15 K, x2 = 0.8999	899.13 ± 0.83	0.8176 ± 0.011
298.15 K, x2 = 0.0999	1021.84 ± 0.83	2.202 ± 0.026
298.15 K, x2 = 0.2	1008.55 ± 0.83	1.932 ± 0.023
298.15 K, x2 = 0.3003	994.54 ± 0.83	1.684 ± 0.021
298.15 K, x2 = 0.3999	979.9 ± 0.83	1.471 ± 0.018
298.15 K, x2 = 0.5	964.41 ± 0.83	1.286 ± 0.016
298.15 K, x2 = 0.5997	948.23 ± 0.83	1.131 ± 0.014
298.15 K, x2 = 0.7	931.08 ± 0.83	1.002 ± 0.013
298.15 K, x2 = 0.7999	913 ± 0.83	0.8815 ± 0.012
298.15 K, x2 = 0.8999	893.87 ± 0.83	0.7679 ± 0.01
303.15 K, x2 = 0.0999	1016.65 ± 0.83	1.983 ± 0.024
303.15 K, x2 = 0.2	1003.35 ± 0.83	1.749 ± 0.021
303.15 K, x2 = 0.3003	989.33 ± 0.83	1.535 ± 0.019
303.15 K, x2 = 0.3999	974.68 ± 0.83	1.347 ± 0.017
303.15 K, x2 = 0.5	959.18 ± 0.83	1.185 ± 0.015
303.15 K, x2 = 0.5997	942.99 ± 0.83	1.048 ± 0.013
303.15 K, x2 = 0.7	925.83 ± 0.83	0.9351 ± 0.012
303.15 K, x2 = 0.7999	907.74 ± 0.83	0.8255 ± 0.011
303.15 K, x2 = 0.8999	888.59 ± 0.83	0.7228 ± 0.0098
308.15 K, x2 = 0.0999	1011.46 ± 0.83	1.796 ± 0.022
308.15 K, x2 = 0.2	998.15 ± 0.83	1.593 ± 0.02
308.15 K, x2 = 0.3003	984.12 ± 0.83	1.405 ± 0.017
308.15 K, x2 = 0.3999	969.46 ± 0.83	1.239 ± 0.016
308.15 K, x2 = 0.5	953.96 ± 0.83	1.096 ± 0.014
308.15 K, x2 = 0.5997	937.75 ± 0.83	0.9742 ± 0.013
308.15 K, x2 = 0.7	920.58 ± 0.83	0.8745 ± 0.011
308.15 K, x2 = 0.7999	902.47 ± 0.83	0.7752 ± 0.01
308.15 K, x2 = 0.8999	883.31 ± 0.83	0.6811 ± 0.0094
313.15 K, x2 = 0.0999	1006.27 ± 0.83	1.642 ± 0.02
313.15 K, x2 = 0.2	992.95 ± 0.83	1.465 ± 0.018
313.15 K, x2 = 0.3003	978.91 ± 0.83	1.297 ± 0.016
313.15 K, x2 = 0.3999	964.25 ± 0.83	1.149 ± 0.015
313.15 K, x2 = 0.5	948.72 ± 0.83	1.019 ± 0.013
313.15 K, x2 = 0.5997	932.5 ± 0.83	0.91 ± 0.012
313.15 K, x2 = 0.7	915.31 ± 0.83	0.8216 ± 0.011
313.15 K, x2 = 0.7999	897.18 ± 0.83	0.731 ± 0.0099
313.15 K, x2 = 0.8999	878 ± 0.83	0.6451 ± 0.009
318.15 K, x2 = 0.0999	1001.09 ± 0.83	1.5 ± 0.018
318.15 K, x2 = 0.2	987.76 ± 0.83	1.341 ± 0.017
318.15 K, x2 = 0.3003	973.7 ± 0.83	1.193 ± 0.015
318.15 K, x2 = 0.3999	959.02 ± 0.83	1.061 ± 0.014
318.15 K, x2 = 0.5	943.48 ± 0.83	0.9464 ± 0.012
318.15 K, x2 = 0.5997	927.25 ± 0.83	0.8492 ± 0.011
318.15 K, x2 = 0.7	910.04 ± 0.83	0.7706 ± 0.01
318.15 K, x2 = 0.7999	891.89 ± 0.83	0.6883 ± 0.0095
318.15 K, x2 = 0.8999	872.69 ± 0.83	0.6086 ± 0.0086
323.15 K, x2 = 0.0999	995.9 ± 0.83	1.384 ± 0.017
323.15 K, x2 = 0.2	982.56 ± 0.83	1.245 ± 0.016
323.15 K, x2 = 0.3003	968.49 ± 0.83	1.113 ± 0.014
323.15 K, x2 = 0.3999	953.79 ± 0.83	0.9951 ± 0.013
323.15 K, x2 = 0.5	938.24 ± 0.83	0.8916 ± 0.012
323.15 K, x2 = 0.5997	921.98 ± 0.83	0.7992 ± 0.011
323.15 K, x2 = 0.7	904.75 ± 0.83	0.7302 ± 0.0099
323.15 K, x2 = 0.7999	886.58 ± 0.83	0.6542 ± 0.0091
323.15 K, x2 = 0.8999	867.36 ± 0.83	0.5785 ± 0.0083

— the NIST ThermoML archive (doi:10.1021/acs.jced.6b00640)
